Consider 1 substance from patent publication US20220062147A1, “Skin Care Formulation for Treatment of Cellulite” (BOTTLED SCIENCE LIMITED, priority 2020, published 2022).

In the assay the test system is subjects with cellulite. The assay is described as follows: Superoxide dismutase administered to subjects with cellulite; subcutaneous fat measured after 90 days. In kind it is in vivo, human. An excerpt: Similarly, there was a 23% reduction in subcutaneous fat compared with the placebo after 90 days at the femoral fold.

Take superoxide dismutase: the “reduction in subcutaneous fat compared with the placebo at the femoral fold” value (after 90 days, femoral fold, vs placebo) is listed as 23%. Under “after 90 days, gluteal fold, vs placebo”, the “reduction in subcutaneous fat compared with the placebo at the gluteal fold” value came to 28%. Besides, where the note is “clinical trials, femoral fold, result in words”, the “subcutaneous fat at the femoral fold (FIG. 1, right-hand chart)” value is “significantly reduces”. Besides, the “subcutaneous fat at the gluteal fold (FIG. 1, left-hand chart)” value (clinical trials, gluteal fold, result in words) was “significantly reduces”.
